Test results published in ChEMBL document CHEMBL1201862, “PubChem BioAssay data set” (2004).
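Tested at 5 concentrations; 48 h exposure; 96-well plates; endpoints linearly interpolated, else capped at highest concentration. At the GI50, growth is halved.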 Activity calls are given as the source filed them. Cut-off read from the data, not from the text of the source: active = GI50 up to about 1.1 µM and inactive = higher.

Experiments:
Experiment in all cases: NCI anticancer screen, dose series, 48 h
[1] = system: ACHN
[2] = system: MOLT-4
[3] = system: Hs-578T
[4] = system: RPMI-8226
[5] = system: SK-OV-3
[6] = system: NCI-H226
[7] = system: NCI/ADR-RES
[8] = system: SR
[9] = system: HOP-62
[10] = system: OVCAR-3
[11] = system: SF-268
[12] = system: HT-29
[13] = system: A498
[14] = system: KM12
[15] = system: SF-539
[16] = system: NCI-H23
[17] = system: HOP-92
[18] = system: SN12C
[19] = system: HL-60

Row | SMILES | GI50 [1] | GI50 [2] | GI50 [3] | GI50 [4] | GI50 [5] | GI50 [6] | GI50 [7] | GI50 [8] | GI50 [9] | GI50 [10] | GI50 [11] | GI50 [12] | GI50 [13] | GI50 [14] | GI50 [15] | GI50 [16] | GI50 [17] | GI50 [18] | GI50 [19]
1 | Cc1ccc(/N=N/C(=N\c2ccc(Cl)cc2)c2ccc(N(CCC#N)CCC#N)cc2)cc1 | 42 µM (inactive) | > 100 µM (inactive) | 33.7 µM (inactive) | > 100 µM (inactive) | > 100 µM (inactive) | > 100 µM (inactive) | 57.8 µM (inactive) | 22 µM (inactive) | 58.3 µM (inactive) | 33.4 µM (inactive) | 48.1 µM (inactive) | 71.4 µM (inactive) | > 100 µM (inactive) | 19.1 µM (inactive) | 47.4 µM (inactive) | 48.6 µM (inactive) | 46.3 µM (inactive) | 40.9 µM (inactive) | 
2 | C#CCn1c(=O)ccn(/C(=C/C(=O)OCC)C(=O)OCC)c1=O | 1.59 µM (inactive) | 3.43 µM (inactive) | 18.7 µM (inactive) | 2.9 µM (inactive) | 35.2 µM (inactive) | 18.6 µM (inactive) | 3.7 µM (inactive) | 3.45 µM (inactive) | 13 µM (inactive) | 6.35 µM (inactive) | 13.1 µM (inactive) | 2.17 µM (inactive) | 15.1 µM (inactive) | 17.4 µM (inactive) | 1.48 µM (inactive) | 11.9 µM (inactive) | 2.38 µM (inactive) | 9.08 µM (inactive) | 3.44 µM (inactive)
3 | CC[C@H]1C=CCC[C@@]2(C[C@@H]3CC[C@@H]4[C@H](C(=O)OCCCCCCCCCCCCCCCC(=O)N(CCCNC(C)=O)C[C@H](CCNC(C)=O)OC(C)=O)[C@]5(CCC[C@@H](C)O5)NC(=[N+]34)N2)O1 | 0.382 µM (active) | 0.0328 µM (active) | 0.391 µM (active) | 0.0312 µM (active) | 1.43 µM (inactive) | 0.229 µM (active) | 2.74 µM (inactive) | 0.0394 µM (active) | 0.494 µM (active) | 0.158 µM (active) | 0.187 µM (active) | 0.0344 µM (active) | 0.435 µM (active) | 0.0847 µM (active) | 0.26 µM (active) | 0.583 µM (active) | 0.0659 µM (active) | 0.516 µM (active) | 0.0745 µM (active)
4 | [O-][N+]1(CC[N+]2([O-])CCCCC2)CCCCC1 | > 100 µM (inactive) | > 100 µM (inactive) | > 100 µM (inactive) | > 100 µM (inactive) | > 100 µM (inactive) | > 100 µM (inactive) | > 100 µM (inactive) | > 100 µM (inactive) | > 100 µM (inactive) | > 100 µM (inactive) | > 100 µM (inactive) | > 100 µM (inactive) | > 100 µM (inactive) | > 100 µM (inactive) | > 100 µM (inactive) | > 100 µM (inactive) | > 100 µM (inactive) | > 100 µM (inactive) | > 100 µM (inactive)
5 | CC[C@@]1(O)C(=O)OCc2c1cc1n(c2=O)Cc2c-1nc1ccccc1c2/C=N\NC(=O)C(N)CS (stereo partly specified) | 0.262 µM (active) | 0.0794 µM (active) | > 100 µM (inactive) | 1.32 µM (inactive) | 1.91 µM (inactive) | 1.66 µM (inactive) | 1.71 µM (inactive) | 0.0373 µM (active) | 0.295 µM (active) | 13.2 µM (inactive) | 0.186 µM (active) | 9.29 µM (inactive) | 2.55 µM (inactive) | 24.8 µM (inactive) | 0.249 µM (active) | 0.733 µM (active) | 3.13 µM (inactive) | 0.116 µM (active) | 0.346 µM (active)
6 | CCOC(=O)c1ccc(C(=O)/C(C#N)=C2\CCCN2)[nH]1 |  | 48.2 µM (inactive) | > 100 µM (inactive) | > 100 µM (inactive) | > 100 µM (inactive) | > 100 µM (inactive) | 78.3 µM (inactive) | 19.6 µM (inactive) | > 100 µM (inactive) | 82.2 µM (inactive) | > 100 µM (inactive) | 72.3 µM (inactive) | > 100 µM (inactive) | 55 µM (inactive) | > 100 µM (inactive) | > 100 µM (inactive) | > 100 µM (inactive) | > 100 µM (inactive) | 66.5 µM (inactive)
7 | O=C1c2c(ccc3c2CCCC3)CC12Cc1ccccc1C2 | 7.73 µM (inactive) | 4.03 µM (inactive) | 22.5 µM (inactive) | 4.35 µM (inactive) | 30.6 µM (inactive) | 9.53 µM (inactive) | 15.8 µM (inactive) | 4.57 µM (inactive) | 16.8 µM (inactive) | 9.93 µM (inactive) | 43.2 µM (inactive) | 5.96 µM (inactive) | 11.1 µM (inactive) | 16.4 µM (inactive) | 6.31 µM (inactive) | 10.3 µM (inactive) | 12.7 µM (inactive) | 21.8 µM (inactive) | 11.2 µM (inactive)
8 | O=C1CSC2=NC3=C(COC/C3=C\c3ccc(F)cc3)C(c3ccc(F)cc3)N12 (stereo unspecified) | 71 µM (inactive) | 20.6 µM (inactive) | > 100 µM (inactive) | 14.9 µM (inactive) | > 100 µM (inactive) | > 100 µM (inactive) | 58.9 µM (inactive) | 20.7 µM (inactive) | > 100 µM (inactive) | 49.7 µM (inactive) | > 100 µM (inactive) |  | > 100 µM (inactive) | 75 µM (inactive) | > 100 µM (inactive) | 73.1 µM (inactive) | 93.5 µM (inactive) | > 100 µM (inactive) | 12.6 µM (inactive)
9 | Nc1c2c(nc3ccccc13)-c1ccccc1NCCC2 | 36.6 µM (inactive) | 24.6 µM (inactive) | 56.5 µM (inactive) | 20.2 µM (inactive) | 64.6 µM (inactive) | 25.4 µM (inactive) | 68.2 µM (inactive) | 17.9 µM (inactive) | 16.6 µM (inactive) | 78.2 µM (inactive) | 45.1 µM (inactive) | 23 µM (inactive) | 16.6 µM (inactive) | 35.2 µM (inactive) | 21 µM (inactive) | 47.3 µM (inactive) | 13.9 µM (inactive) | 33.3 µM (inactive) | 18.4 µM (inactive)
10 | CC1OC2/C=C\CC(O)C(C)(C)C3CCC(C)C4(O3)O[B-]35OC(C(=O)OC1C2)C1(OC(CCC1C)C(C)(C)C(O)C/C=C\C1CC(OC(=O)C4O3)C(C)O1)O5 (stereo unspecified) | 3.45 µM (inactive) | 1.01 µM (active) | 1.54 µM (inactive) | 1.63 µM (inactive) | 4.47 µM (inactive) | 0.726 µM (active) | 3.2 µM (inactive) | 1.78 µM (inactive) | 2.08 µM (inactive) | 1.89 µM (inactive) | 2.02 µM (inactive) | 2.75 µM (inactive) | 2.45 µM (inactive) | 3.07 µM (inactive) | 2.42 µM (inactive) | 1.85 µM (inactive) | 2.94 µM (inactive) | 2.69 µM (inactive) | 1.06 µM (active)
11 | COC(COC(=O)N1CCN(C=O)CC1)C1=C(N2CC2)C(=O)C(C)=C(N2CC2)C1=O (stereo unspecified) | < 0.0193 µM (active) | 0.138 µM (active) | 1.26 µM (inactive) | 0.362 µM (active) | 0.195 µM (active) | 0.582 µM (active) | 5.57 µM (inactive) | < 0.01 µM (active) | 0.191 µM (active) | 0.656 µM (active) | 0.12 µM (active) | 0.189 µM (active) | 1.51 µM (inactive) | 0.551 µM (active) | 0.0632 µM (active) | 0.0675 µM (active) | 0.198 µM (active) | 0.0336 µM (active) | 
12 | O=C(Cn1c(=O)oc2ccc(C(=O)c3cccc(Cl)c3)cc21)c1ccccc1 | > 100 µM (inactive) | 49.4 µM (inactive) | > 100 µM (inactive) | > 100 µM (inactive) | 42.1 µM (inactive) | 40.9 µM (inactive) | > 100 µM (inactive) | 36.3 µM (inactive) | > 100 µM (inactive) | > 100 µM (inactive) | > 100 µM (inactive) | 29.9 µM (inactive) | 33 µM (inactive) |  | > 100 µM (inactive) | > 100 µM (inactive) | 7.14 µM (inactive) | > 100 µM (inactive) | 19.3 µM (inactive)
13 | CCN(CC)c1nc(=O)c(C(=O)C(C)(C)C)c(C(C)(C)C)o1 | > 100 µM (inactive) | > 100 µM (inactive) | > 100 µM (inactive) | > 100 µM (inactive) | > 100 µM (inactive) | > 100 µM (inactive) | > 100 µM (inactive) | > 100 µM (inactive) | > 100 µM (inactive) |  | > 100 µM (inactive) | > 100 µM (inactive) | > 100 µM (inactive) | > 100 µM (inactive) | > 100 µM (inactive) | > 100 µM (inactive) | > 100 µM (inactive) | > 100 µM (inactive) | > 100 µM (inactive)
14 | C(=C/c1ccc2nc(-c3ccc(/C=C/C=N/NC4=NCCCN4)cc3)cn2c1)/C=N/NC1=NCCCN1 | 46.7 µM (inactive) | 42.2 µM (inactive) | 15.8 µM (inactive) | 0.822 µM (active) | > 100 µM (inactive) | 14.8 µM (inactive) | 22.1 µM (inactive) | 31.2 µM (inactive) | > 100 µM (inactive) | > 100 µM (inactive) | 12.2 µM (inactive) |  | > 100 µM (inactive) | 6.31 µM (inactive) | 25.5 µM (inactive) | > 100 µM (inactive) | > 100 µM (inactive) | > 100 µM (inactive) | 
15 | c1ccc(/C(=N\Nc2nc3ccccc3[nH]2)c2ccccn2)cc1 | 0.268 µM (active) | 0.012 µM (active) | 5.5 µM (inactive) | 0.242 µM (active) | 0.342 µM (active) | 0.256 µM (active) | 0.284 µM (active) | 0.348 µM (active) | 0.324 µM (active) | 0.169 µM (active) | 0.443 µM (active) | 0.0101 µM (active) | 0.916 µM (active) | 0.735 µM (active) | 0.388 µM (active) | 0.381 µM (active) | 0.238 µM (active) | 0.415 µM (active) | 
